From patent US20230256217A1, “OZONE GENERATION APPARATUSES AND METHODS OF TREATING WOUNDS” (priority 2020, published 2023)

What was measured:
P. aeruginosa [1] = experiment: Adjunct ozone and antibiotic therapy antibacterial test; type: cell-based; conditions: ozone 100 ppm (4 mg/hr) for six hours; antibiotic 20 μg/mL; 37° C.
Protocol: To test the antibacterial effects of ozone in combination with antibiotics, a P. aeruginosa culture was inoculated in a solution of […] soy broth (TSB) and incubated overnight. A sample of the mature culture was diluted in new TSB at 1:50. The new culture media was then pipetted into test wells in triplicate at 1:10 with either linezolid or vancomycin solution in phosphate buffered saline (PBS) at 200 μg/mL. […] The bacterial samples were subject to the combination treatment of 100 ppm (4 mg/hr) ozone with vancomycin at 20 μg/mL and linezolid at 20 μg/mL. During testing, the test samples were kept at 37° C. At 2, 4, and six hours, 20 μL samples were withdrawn from the designated set of wells and plated on TSB agar plates. Bacterial colonies were counted after being incubated overnight at 37°. Experimental adjunct therapy samples were compared against treatment of only ozone, and control cultures exposed to antibiotics without the ozone. Because both antibiotics in the test (linezolid and vancomycin) are designed to be effective against G+ve bacteria, it was expected that neither will show any effect against the bacterial strain unless combined with ozone. Additionally, treatment was administered to in vitro colonies of P. aeruginosa under ideal conditions for bacterial growth.

S. epidermidis = conditions: cited from earlier work
P. aeruginosa [2] = conditions: cited from earlier work
[3] = tested on: normal mammary fibroblasts HMS-32 cells; experiment: Cytotoxicity of ozone treatment on human cells; type: cell-based
Protocol: FIGS. 10A through 10D include images of normal mammary fibroblasts HMS-32 cells initial (FIG. 10A), after six hours of ozone treatment (FIG. 10B), 24 hours after ozone treatment (FIG. 10C), and 48 hours after ozone treatment (FIG. 10D). Scale bar 10 micrometers. FIG. 10E contains a graph showing percentage of apoptotic cells at each time in a control group and an experimental group. Data was collected from triplicate samples, with error bars indicating standard deviation.
The possibility for the use of ozone to treat antibiotic resistant infections is also dependent on the apparatus not damaging the normal skin cells. Cytotoxic experimentation was conducted to determine how the ozone treatment would interact with human skin cells (FIG. 10A through 10D). […] Ozone treatment has been used to increase the healing process for chronic wounds, so there is good reason to believe a high level of biocompatibility exists. […] Similar to the stain imaging done for the antimicrobial results, FIGS. 10A through 10D are stain images that show the health of the cells at each time point. In each cell, F-actin was stained green, and the nuclei were stained blue. These images support finding minimal cytotoxicity because there is no noticeable difference in the images over time. […]

P. aeruginosa ATCC 15442 = experiment: Antibacterial test of ozone applied by the patch; type: cell-based; conditions: initial 5 log CFU/mL concentration; within six hours of treatment
Protocol: (§1) The antibacterial properties of the patch 10 were assessed by exposing multiple strains of antibiotic resistant bacteria (both Gram-negative and Gram-positive) to the ozone applied by the patch 10 for six hours, and measuring the living concentration every one to two hours. Experiments using two common strains of antibiotic resistant bacteria common in skin infections, S. epidermidis NRS101 and P. aeruginosa ATCC 15442, indicated positive results. […] FIGS. 8A through 8C show bacteria stain images of the samples before and after treatment, and a control. At first, all of the bacteria were stained green, and then any dead bacteria were re-stained with the red. These images show qualitatively that the bacteria before the treatment are living, and afterward are mostly dead. […] Additionally, results for the Gram-negative bacteria, P. aeruginosa, indicated even better results. […] FIGS. 8D, 8E, and 8F show similar stain images for P. aeruginosa.

S. epidermidis NRS101 = experiment: Antibacterial test of ozone applied by the patch; type: cell-based; conditions: six hours of ozone exposure through the patch
Protocol: as §1

P. aeruginosa [4] = experiment: Secondary study: pristine vs biofluid-preconditioned patch, bacteria spotted on filter paper; type: cell-based; conditions: ozone for six hours
Protocol: A secondary study was also conducted on P. aeruginosa to verify that prolonged contact to a wound environment would not change antimicrobial properties. In each case, 100 μL of P. aeruginosa was diluted into 1 mL of PBS and spotted onto filter paper. Each experimental trial was exposed to the ozone for six hours. The first test was conducted through an untreated patch 10, while the second was conducted using a patch 10 that had been preconditioned by resting on a damp sponge filled with mammalian cell culture media overnight. FIGS. 9A and 9B report the results of the tests when compared to the controls, which were prepared in the same way, but exposed to no ozone treatment.

human keratinocyte cells = experiment: Biocompatibility of adjunct therapy; type: cell-based; conditions: six hour, 100 ppm ozone; nanofiber solution with or without antibiotic
Protocol: By studying the biocompatibility, it was determined that the treatment system was both effective and safe to use. To test this, human keratinocyte cells were either exposed to the ozone therapy (with or without antibiotics) or left as a control. In each case, cell samples were exposed to test inhibitory concentration of the nanofiber solution containing either linezolid, vancomycin, or no antibiotic. Tests were conducted under the same six hour and 100 ppm ozone parameters as the antibacterial studies.

In the case of `CC(=O)NC[C@H]1CN(c2ccc(N3CCOCC3)c(F)c2)C(=O)O1` [linezolid], the “bacterial population (CFU/mL) compared to initial” value (P. aeruginosa [1]) is reported as “did not inhibit the growth of the bacteria at all”.

For penicillin, the “known effectiveness / resistance” value (S. epidermidis) is listed as “resisted” and the “known effectiveness / resistance” value (P. aeruginosa [2]) is listed as “resisted”.

For `CN[C@H](CC(C)C)C(=O)N[C@H]1C(=O)N[C@@H](CC(N)=O)C(=O)N[C@H]2C(=O)N[C@H]3C(=O)N[C@H](C(=O)N[C@H](C(=O)O)c4cc(O)cc(O)c4-c4cc3ccc4O)[C@H](O)c3ccc(c(Cl)c3)Oc3cc2cc(c3O[C@@H]2O[C@H](CO)[C@@H](O)[C@H](O)[C@H]2O[C@H]2C[C@](C)(N)[C@H](O)[C@H](C)O2)Oc2ccc(cc2Cl)[C@H]1O` [vancomycin], the “known effectiveness / resistance” value (S. epidermidis) is given as “known to be effective” and the “bacterial population (CFU/mL) compared to initial” value (P. aeruginosa [1]) is given as “no impact on bacteria growth”.

In the case of `NC[C@H]1O[C@H](O[C@H]2[C@H](O)[C@@H](O[C@H]3O[C@H](CO)[C@@H](O)[C@H](N)[C@H]3O)[C@H](N)C[C@@H]2N)[C@H](N)C[C@@H]1O` [tobramycin], the “known effectiveness / resistance” value (P. aeruginosa [2]) is listed as “resisted”.

For colistin, the “known effectiveness / resistance” value (P. aeruginosa [2]) is given as “known to be effective”.

For `Cc1onc(-c2ccccc2)c1C(=O)N[C@@H]1C(=O)N2[C@@H]1SC(C)(C)[C@@H]2C(=O)O` [oxacillin], the “known effectiveness / resistance” value (S. epidermidis) is given as “resisted”.

With `O=[O+][O-]` [ozone] the “increase in cell apoptosis” value ([3]; after six, 24 and 48 hours) was “no significant increase in cell apaptosis”, the “increase in cell apoptosis” value ([3]; over 48 hours after six hours of ozone exposure) was 6.5% and the eradication of bacteria (P. aeruginosa ATCC 15442) was “completely eradicate”. The “log10 reduction CFU/mL” value (S. epidermidis NRS101) was 0.8 log10 reduction CFU/mL, the “reduction from the starting inoculum” value (S. epidermidis NRS101) was “greater than 70%” and the elimination of bacteria (P. aeruginosa [4]; patch preconditioned overnight on sponge with mammalian cell culture media) was “complete elimination of bacteria”. The elimination of bacteria (P. aeruginosa [4]; untreated (pristine) patch) was “complete elimination of bacteria” and the “percent of cell viability” value (human keratinocyte cells) was “did not significantly change”.

For `C[C@@H](O)[C@H]1C(=O)N2C(C(=O)O)=C(S[C@@H]3CN[C@H](C(=O)N(C)C)C3)[C@H](C)[C@H]12` [meropenem], the “known effectiveness / resistance” value (P. aeruginosa [2]) is listed as “known to be effective”.
